Source: patent US20250025435A1, “CO-CRYSTALS OF NONSTEROIDAL ANTI-INFLAMMATORY DRUGS, LYSINE AND GABAPENTIN, PHARMACEUTICAL COMPOSITIONS AND THEIR MEDICAL USE” (DOMPE' FARMACEUTICI SPA, priority 2021, published 2025)

Columns and labels:
[1] = tested on: carrageenan-induced rat paw edema; assay: Carrageenan-induced rat paw edema test; format: in vivo, Male Wistar rats; details: for volume reduction of paw edema in rats (%): vs vehicle-treated group, single oral dose; for paw thickness: mean±SEM, n=8, vehicle 9.55±0.47 mm
[2] = tested on: mechanical allodynia in carrageenan-injected rats; assay: Mechanical allodynia (von Frey, up and down method) in rat carrageenan-induced paw edema model; format: in vivo, Male Wistar rats; details: 3 h post-carrageenan; ipsilateral paw; n=8; vehicle 8.25±1.61 g, baseline 80±7.56 g
[3] = parameters: species or system Sprague Dawley male rat; details: rat, in vivo, po
Source text: Sprague Dawley male rat (body weights 310 gr at the time of the treatment) were used in this study. The animals were originally supplied by Harlan, Italy. Once receipt from the supplier, the animals were subjected to health examinations and acceptance. The animals were housed, in a group of three, in cages suitable for the species and were routinely kept in the following environment except for short periods of time where experimental procedures dictated otherwise. The animals were acclimatized to local housing conditions for approximately 5 days. The animals were housed in a single, exclusive room, air conditioned to provide a minimum of 15 air changes/hour. The environmental controls were set to maintain temperature within the range 22° C. and relative humidity within the range 50 to 60% with an approximate 12 hour light and 12 hour dark cycle that is controlled automatically. Food (Mucedola Standard GLP diet) and water were available ad libitum throughout the study. All animals were weighed on the day of each treatment. Clinical signs were monitored at regular intervals throughout the study in order to assess any reaction to treatment. Each animal was uniquely identified with a coloured spray on the back before the experiment. At the end of the study animals were sacrificed by exsanguination under anaesthesia. […]

[4] = cited from earlier work

Compound | volume reduction of paw edema in rats (%) ([1]; 1 h post-carrageenan) | volume reduction of paw edema in rats (%) ([1]; 3 h post-carrageenan) | paw thickness ([1]; 5 h post-carrageenan) | volume reduction of paw edema in rats (%) ([1]; 5 h post-carrageenan) | paw withdrawal threshold [2] | Cmax (ng/mL) Flurbiprofen [3] | Cmax (ng/mL) Gabapentin [3] | time to utmost level in plasma ([4]; after oral administration (Quintero 2017)) | excretion half-life ([4]; expelled by the renal system)
Flurbiprofen-Lysine-Gabapentin [Flur/Lys/Gaba] | −21.80% | −39.91% | 5.51±0.42 mm | −42.27% | 85.75 ± 9.86 g | 14725 ± 1267 ng/mL | 3008 ± 246 ng/mL |  | 
NCC1(CC(=O)O)CCCCC1 [Gabapentin] | −1.93% | −16.21% | 7.45±0.26 mm | −17.27% | 66.5 ± 11 g |  |  | 3 to 4 h | roughly 6 hours
CC(C(=O)O)c1ccc(-c2ccccc2)c(F)c1 (stereo not drawn) [Flurbiprofen] | −18.20% | −31.50% | 6.5±0.28 mm | −32.0% | 44.62 ± 14.43 g |  |  |  | 
COc1ccc2c(c1)c(CC(=O)O)c(C)n2C(=O)c1ccc(Cl)cc1 [Indomethacin] | −17.68% | −35.27% | 5.69±0.27 mm | −40.45% | 36 ± 7.21 g |  |  |  | 
